From patent publication US7736624B2, “Methods and compositions for diagnostic and therapeutic targeting of COX-2” (priority 2006, dated 2010)
Where two headings read alike, the source gives them in different places. Blank lines part the entries; values can stand above or below the compound they belong to.

Tests used:
ovine COX-1 = target: T1, ovine COX-1 (Ovis aries, UniProt P05979); assay: IC50 determinations using purified enzymes (TLC assay), COX-1; format: biochemical; settings: assayed against purified enzymes
T1 construct: can be purified from ovine seminal vesicles by standard procedures; from tissue; host or cells: ovine seminal vesicles
T1 sequence (P05979 25-600): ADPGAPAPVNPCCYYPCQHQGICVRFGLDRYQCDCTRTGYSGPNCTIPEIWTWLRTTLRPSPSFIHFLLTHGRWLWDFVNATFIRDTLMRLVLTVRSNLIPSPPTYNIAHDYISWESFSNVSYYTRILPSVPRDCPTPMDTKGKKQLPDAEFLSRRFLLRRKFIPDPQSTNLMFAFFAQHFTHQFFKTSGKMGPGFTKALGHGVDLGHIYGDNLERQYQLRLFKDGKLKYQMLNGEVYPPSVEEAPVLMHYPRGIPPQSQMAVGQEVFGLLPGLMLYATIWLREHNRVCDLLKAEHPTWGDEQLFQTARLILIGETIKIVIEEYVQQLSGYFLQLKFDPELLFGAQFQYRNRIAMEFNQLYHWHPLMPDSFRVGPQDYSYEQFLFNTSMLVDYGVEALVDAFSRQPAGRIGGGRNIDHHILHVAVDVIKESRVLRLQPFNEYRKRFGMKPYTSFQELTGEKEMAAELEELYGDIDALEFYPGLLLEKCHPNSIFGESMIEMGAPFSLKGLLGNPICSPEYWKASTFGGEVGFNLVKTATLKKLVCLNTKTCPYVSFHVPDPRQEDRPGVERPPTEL
Text: (§1) Those skilled in the art will appreciate that an evaluation of the selectivity and efficacy of binding of the NSAID derivative to the COX-2 enzyme, e.g., after the derivative is synthesized, can be desirable. […] One example of an in vitro screening method takes advantage of the fact that both human and murine recombinant COX-2 can be expressed and isolated in pure form from an Sf9 cell expression system. […] Alternatively, membrane preparations from outdated human platelets can provide a source of human COX-1. […] The reaction is stopped by the addition of ethanol/methanol/1 M citrate, pH 4.0 (30:4:1). The extracted products are separated by thin layer chromatography (TLC), which allows quantitation of total product formation as well as assessment of product distribution. This assay is useful to define IC50 values for inhibition of either enzyme, and to determine time-dependency of inhibition. It also provides information concerning changes in products formed as a result of inhibition.
(§2) Reactions were terminated by solvent extraction in Et2O/CH3OH/1 M citrate, pH 4.0 (30:4:1). The phases were separated by centrifugation at 2000 g for 5 minutes and the organic phase was spotted on a 20×20 cm TLC plate (Lieselgel 60, EMD Chemicals, Inc., Gibbstown, N.J., United States of America). The plate was developed in EtOAc/CH2Cl2/glacial AcOH (75:25:1) at 4° C. Radiolabeled prostanoid products were quantitatively determined with a radioactivity scanner available from Bioscan, Inc. (Washington, D.C., United States of America). The percentage of total products observed at different concentrations of the presently disclosed compositions was divided by the percentage of products observed for protein samples preincubated for the same amount of time with DMSO.

[1] = In vitro metabolism study (esterase hydrolysis) with 1483 HNSCC cells, RP-HPLC; format: in vitro ADME; settings: human, read-out: t1/2, disappearance of the parent conjugate (converted)
Procedure: (§3) An in vitro metabolism study was performed with Compound 27i using 1483 HNSCC cells to check the enzymatic (esterase) hydrolysis of the conjugate and identify metabolites up to 24 hours (h).

1483 HNSCC cells = assay: as above; format: in vitro ADME; settings: up to 24 hours
Procedure: as §3

COX-2 [2] = target: T2, COX-2 (Homo sapiens, UniProt P35354); assay: IC50 determinations using purified enzymes (TLC assay), COX-2; format: biochemical; set-up: made in house; host or cells: Sf9 insect cells
T2 sequence (P35354 18-604): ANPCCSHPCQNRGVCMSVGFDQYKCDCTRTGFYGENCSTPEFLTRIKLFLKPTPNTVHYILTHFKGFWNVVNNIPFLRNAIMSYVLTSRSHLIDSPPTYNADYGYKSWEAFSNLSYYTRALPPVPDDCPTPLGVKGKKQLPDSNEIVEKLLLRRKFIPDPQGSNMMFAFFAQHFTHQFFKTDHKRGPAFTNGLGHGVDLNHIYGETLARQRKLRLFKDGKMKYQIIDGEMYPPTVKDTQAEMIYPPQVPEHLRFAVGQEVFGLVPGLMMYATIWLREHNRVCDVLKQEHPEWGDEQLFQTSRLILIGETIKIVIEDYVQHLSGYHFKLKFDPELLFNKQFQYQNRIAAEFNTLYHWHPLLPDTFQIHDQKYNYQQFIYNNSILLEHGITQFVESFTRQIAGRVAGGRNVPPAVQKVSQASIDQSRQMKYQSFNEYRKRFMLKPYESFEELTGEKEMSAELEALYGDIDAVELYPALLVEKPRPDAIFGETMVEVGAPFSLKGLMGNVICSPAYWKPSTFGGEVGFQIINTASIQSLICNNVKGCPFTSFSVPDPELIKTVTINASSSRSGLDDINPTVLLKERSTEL
Text: as §1, §2

RAW264.7 cells = assay: In vitro cell imaging, LPS/IFNγ-activated RAW264.7 cells; format: cell-based, mouse; settings: for fluorescence of control compounds in these in vitro assays: RAW264.7, HEK293/COX-2 and 1483 imaging assays
Procedure: RAW264.7 cells (a line established from a tumor induced in a mouse by Abelson murine leukemia virus and available from the American Type Culture Collection, Manassas, Va., United States of America) were grown overnight on 35 mm culture dishes (MatTek Corp., Ashland, Mass., United States of America) with glass coverslips in Dulbecco's Modified Eagle Medium (DMEM) plus 10% heat-inactivated fetal bovine serum (FBS). Platings of cells were done in order to reach 30% confluency the next day. After overnight growth, the growth medium was replaced with 2 ml serum-free DMEM per dish. Individual dishes then received 200 ng/ml LPS plus 10 units/ml murine IFNγ (Roche Applied Science, Indianapolis, Ind., United States of America) for 6 hours to induce COX-2. […] After 30 minutes, the cells were washed briefly three times in medium and incubated in Hank's balanced salt solution (HBSS)/Tyrode's for 60 minutes at 37° C. After 60 minutes, the HBSS/Tyrode's was removed and fresh HBSS/Tyrode's was added. The cells were immediately imaged using a Zeiss Axiovert 25 Microscope (propidium iodide filter/2-3 sec exposure/gain of 2).

COX-2 [3] = target: T3, COX-2 (Mus musculus, UniProt Q05769); assay: Macrophage assay (RAW264.7), COX-2; format: cell-based, murine; settings: Table 2; macrophage assay (M); read-out: IC50 COX-2
T3 construct: metabolism by the newly synthesized COX-2; endogenous in cells
T3 sequence (Q05769 18-604): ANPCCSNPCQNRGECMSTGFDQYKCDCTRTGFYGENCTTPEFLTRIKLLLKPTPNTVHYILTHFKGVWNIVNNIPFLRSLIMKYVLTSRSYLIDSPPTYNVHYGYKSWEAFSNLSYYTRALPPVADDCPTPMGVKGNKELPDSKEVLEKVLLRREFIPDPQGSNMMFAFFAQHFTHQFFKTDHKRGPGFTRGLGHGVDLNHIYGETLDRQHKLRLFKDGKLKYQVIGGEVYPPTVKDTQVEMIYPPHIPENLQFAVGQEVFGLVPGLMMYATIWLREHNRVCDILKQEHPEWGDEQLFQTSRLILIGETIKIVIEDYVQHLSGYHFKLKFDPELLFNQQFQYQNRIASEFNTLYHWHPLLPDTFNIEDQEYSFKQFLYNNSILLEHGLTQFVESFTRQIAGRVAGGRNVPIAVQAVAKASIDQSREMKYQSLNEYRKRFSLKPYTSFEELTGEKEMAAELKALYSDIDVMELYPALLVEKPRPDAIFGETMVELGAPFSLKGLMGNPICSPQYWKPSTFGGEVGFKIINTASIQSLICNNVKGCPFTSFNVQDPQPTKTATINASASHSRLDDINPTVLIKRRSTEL
Text: (§4) Thus, NSAID derivatives that are identified as potentially useful in the methods described herein can be further tested using, for example, the RAW264.7 murine macrophage cell line. These cells are readily available (for example, from the American Type Culture Collection (ATCC), Manassas, Va., United States of America) and are easily cultured in large numbers. They normally express low levels of COX-1 and very low to undetectable levels of COX-2. Upon exposure to bacterial lipopolysaccharide (LPS), however, COX-2 levels increase dramatically over the ensuing 24 hour period, and the cells produce PGD2 and PGE2 from endogenous arachidonic acid stores (generally, ˜1 nmol/10^7 cells total PG formation). After LPS exposure, the addition of exogenous arachidonic acid results in the formation of additional PGD2 and PGE2 as a result of metabolism by the newly synthesized COX-2.
(§5) This system provides a number of approaches for testing the inhibitory potency of COX-2-selective ligands (e.g., inhibitors). In general, following LPS activation, cells can be treated for 30 minutes with the desired concentrations of candidate derivative(s) in DMSO. ^14C-arachidonic acid can be added, and the cells can be incubated for 15 minutes at 37° C. Product formation can be assessed following extraction and TLC separation of the culture medium. Alternatively, the effects of candidate derivatives on PG synthesis from endogenous arachidonic acid can be assessed by incubating cells with desired concentrations of candidate derivatives 30 minutes prior to LPS exposure. Following a 24-hour incubation, medium can be collected and extracted, and the amount of PGD2 and/or PGE2 can be assayed by gas chromatography-mass spectrometry, liquid chromatography-mass spectrometry, or ELISA.

COX-1 [4] = target: T4, COX-1 (Mus musculus, UniProt P22437); assay: Macrophage assay (RAW264.7), COX-1; format: cell-based, murine; settings: Table 2; macrophage assay (M)
T4 sequence (P22437 1-602): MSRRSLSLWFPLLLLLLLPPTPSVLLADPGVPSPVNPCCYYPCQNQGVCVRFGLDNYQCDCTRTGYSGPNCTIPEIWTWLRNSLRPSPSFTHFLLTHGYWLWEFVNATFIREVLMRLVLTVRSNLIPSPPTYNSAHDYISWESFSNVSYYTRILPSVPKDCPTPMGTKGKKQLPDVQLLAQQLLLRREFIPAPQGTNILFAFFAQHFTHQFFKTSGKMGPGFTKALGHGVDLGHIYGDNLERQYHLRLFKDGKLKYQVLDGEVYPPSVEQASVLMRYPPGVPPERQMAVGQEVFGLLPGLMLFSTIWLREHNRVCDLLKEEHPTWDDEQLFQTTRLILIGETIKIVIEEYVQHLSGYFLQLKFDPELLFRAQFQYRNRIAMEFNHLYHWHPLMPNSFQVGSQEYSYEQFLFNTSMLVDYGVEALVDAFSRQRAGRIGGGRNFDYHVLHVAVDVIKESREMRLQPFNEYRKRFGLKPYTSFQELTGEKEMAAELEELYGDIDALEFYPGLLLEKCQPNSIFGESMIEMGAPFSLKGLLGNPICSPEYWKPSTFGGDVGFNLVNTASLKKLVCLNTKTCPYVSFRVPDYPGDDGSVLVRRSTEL
Text: as §4, §5

COX-1 [5] = settings: literature; cited from earlier work
COX-1 [6] = target: T5, COX-1 (Ovis aries, UniProt P05979); settings: literature; cited from earlier work
T5 sequence (P05979 25-600): T1 sequence (P05979 25-600)

COX-2 [7] = target: T2, COX-2; set-up: 1483 Head/Neck Squamous Cell Carcinoma Cells (Sacks et al. (1988) Cancer Res 48, 2858-2866), which express COX-2; endogenous in cells; host or cells: 1483 HNSCC cells; settings: literature; cited from earlier work
[8] = Table 3, assayed against purified enzymes, read-out: IC50 COX-2

Compound: COc1ccc2c(c1)c(CC(=O)O)c(C)n2C(=O)c1ccc(Cl)cc1 [Indomethacin, indomethacin]
potency as ligand of COX-1 relative to COX-2 (COX-1 [5]): approximately 15 fold

Compound: O=C(c1ccccc1)c1ccc2n1CCC2C(=O)NCc1ccc(F)cc1 (stereo not drawn) [p-fluorobenzylamide of ketorolac]
IC50 (COX-1 [6]): > 65 µM
IC50 (COX-2 [7]): 0.08 µM

Compound: COc1ccc2c(c1)c(CC(=O)Nc1ccc(F)cc1)c(C)n2C(=O)c1ccc(Cl)cc1 [p-fluorophenylamide of indomethacin, indomethacin-N-(4-fluorophenyl)amide]
IC50 (COX-1 [6]): > 66 µM

The next lines start with results.

IC50 (ovine COX-1; Table 1): > 4 µM
half-life [1]: 5.5 h
parent conjugate remained (1483 HNSCC cells): 25%
IC50 (COX-2 [2]; purified enzyme, read-out: COX-2 IC50): 0.107 µM
Compound: COc1ccc2c(c1)c(CC(=O)NCCOC(=O)\C=C(C)/C=C/C=C(C)/C=C/C1=C(C)CCCC1(C)C)c(C)n2C(=O)c1ccc(Cl)cc1 [Compound 27i]

IC50 (ovine COX-1; Table 3): > 25 µM
IC50 (COX-2 [2]; [8]): > 25 µM
Compound: COc1ccc2c(c1)c(CC(=O)NCCNC(=O)c1ccc(C(=O)[O-])c(C3=c4cc5c6c(c4Oc4c3cc3c7c4CCCN7CCC3)CCC[N+]=6CCC5)c1)c(C)n2C(=O)c1ccc(Cl)cc1 [Compound 27ww]
fluorescence imaging of cells (RAW264.7 cells; 200 nM, 30 minutes, LPS-activated RAW264.7): No fluorescence above background
fluorescence of control compounds in these in vitro assays (RAW264.7 cells): minimal fluorescence

IC50 (ovine COX-1; Table 3): > 25 µM
IC50 (COX-2 [2]; [8]): > 25 µM
Compound: COc1ccc2c(c1)c(CCNC(=O)c1ccc(C3=c4cc5c6c(c4Oc4c3cc3c7c4CCCN7CCC3)CCC[N+]=6CCC5)c(C(=O)[O-])c1)c(C)n2Cc1ccc(Br)cc1 [Compound 28f]
fluorescence of control compounds in these in vitro assays (RAW264.7 cells): minimal fluorescence

IC50 (COX-2 [3]): 1.4e-06 M
IC50 (COX-1 [4]): > 5e-06 M
IC50 (COX-2 [2]; Table 2, assayed against purified enzymes, read-out: IC50 COX-2): 8.9 µM
Compound: Cc1ccc(-c2cc(CCC(=O)O)nn2-c2ccc(S(N)(=O)=O)cc2)cc1 [Compound 30c, 3-[1-{p-(Sulfonamido)phenyl}-5-p-tolyl-1H-pyrazol-3-yl]propanoic acid]
